In ChEMBL document CHEMBL2086273, “Significant activity of ecdysteroids on the resistance to doxorubicin in mammalian cancer cells expressing the human ABCB1 transporter” (J Med Chem, 2012):

Experiments:
Format in all cases: cell-based
[1] = target: T1, ATP-dependent translocase ABCB1 (Homo sapiens, UniProt P08183); assay: Inhibition of human ABCB1 pump expressed in mouse L5178 cells assessed as fluorescence activity ratio at 20 uM for 10 mins by flow cytometry relative to control; conditions: l5178, 10 min
[2] = target: T1, ATP-dependent translocase ABCB1; assay: Inhibition of human ABCB1 expressed in mouse L5178 cells assessed as 95% inhibition of cell proliferation at compound-doxorubicin ratio of 40.8:1 after 48 hrs by MTT assay; conditions: l5178, 48 h
[3] = target: T1, ATP-dependent translocase ABCB1; assay: Inhibition of human ABCB1 expressed in mouse L5178 cells assessed as 50% inhibition of cell proliferation at compound-doxorubicin ratio of 40.8:1 after 48 hrs by MTT assay; conditions: l5178, 48 h
[4] = target: T1, ATP-dependent translocase ABCB1; assay: Inhibition of human ABCB1 expressed in mouse L5178 cells assessed as 75% inhibition of cell proliferation at compound-doxorubicin ratio of 40.8:1 after 48 hrs by MTT assay; conditions: l5178, 48 h
[5] = target: T1, ATP-dependent translocase ABCB1; assay: Inhibition of human ABCB1 expressed in mouse L5178 cells assessed as 95% inhibition of cell proliferation at compound-doxorubicin ratio of 20.4:1 after 48 hrs by MTT assay; conditions: l5178, 48 h
[6] = target: T1, ATP-dependent translocase ABCB1; assay: Inhibition of human ABCB1 expressed in mouse L5178 cells assessed as 75% inhibition of cell proliferation at compound-doxorubicin ratio of 20.4:1 after 48 hrs by MTT assay; conditions: l5178, 48 h
[7] = target: T1, ATP-dependent translocase ABCB1; assay: Inhibition of human ABCB1 expressed in mouse L5178 cells assessed as 50% inhibition of cell proliferation at compound-doxorubicin ratio of 20.4:1 after 48 hrs by MTT assay; conditions: l5178, 48 h

T1 sequence (P08183 whole entry): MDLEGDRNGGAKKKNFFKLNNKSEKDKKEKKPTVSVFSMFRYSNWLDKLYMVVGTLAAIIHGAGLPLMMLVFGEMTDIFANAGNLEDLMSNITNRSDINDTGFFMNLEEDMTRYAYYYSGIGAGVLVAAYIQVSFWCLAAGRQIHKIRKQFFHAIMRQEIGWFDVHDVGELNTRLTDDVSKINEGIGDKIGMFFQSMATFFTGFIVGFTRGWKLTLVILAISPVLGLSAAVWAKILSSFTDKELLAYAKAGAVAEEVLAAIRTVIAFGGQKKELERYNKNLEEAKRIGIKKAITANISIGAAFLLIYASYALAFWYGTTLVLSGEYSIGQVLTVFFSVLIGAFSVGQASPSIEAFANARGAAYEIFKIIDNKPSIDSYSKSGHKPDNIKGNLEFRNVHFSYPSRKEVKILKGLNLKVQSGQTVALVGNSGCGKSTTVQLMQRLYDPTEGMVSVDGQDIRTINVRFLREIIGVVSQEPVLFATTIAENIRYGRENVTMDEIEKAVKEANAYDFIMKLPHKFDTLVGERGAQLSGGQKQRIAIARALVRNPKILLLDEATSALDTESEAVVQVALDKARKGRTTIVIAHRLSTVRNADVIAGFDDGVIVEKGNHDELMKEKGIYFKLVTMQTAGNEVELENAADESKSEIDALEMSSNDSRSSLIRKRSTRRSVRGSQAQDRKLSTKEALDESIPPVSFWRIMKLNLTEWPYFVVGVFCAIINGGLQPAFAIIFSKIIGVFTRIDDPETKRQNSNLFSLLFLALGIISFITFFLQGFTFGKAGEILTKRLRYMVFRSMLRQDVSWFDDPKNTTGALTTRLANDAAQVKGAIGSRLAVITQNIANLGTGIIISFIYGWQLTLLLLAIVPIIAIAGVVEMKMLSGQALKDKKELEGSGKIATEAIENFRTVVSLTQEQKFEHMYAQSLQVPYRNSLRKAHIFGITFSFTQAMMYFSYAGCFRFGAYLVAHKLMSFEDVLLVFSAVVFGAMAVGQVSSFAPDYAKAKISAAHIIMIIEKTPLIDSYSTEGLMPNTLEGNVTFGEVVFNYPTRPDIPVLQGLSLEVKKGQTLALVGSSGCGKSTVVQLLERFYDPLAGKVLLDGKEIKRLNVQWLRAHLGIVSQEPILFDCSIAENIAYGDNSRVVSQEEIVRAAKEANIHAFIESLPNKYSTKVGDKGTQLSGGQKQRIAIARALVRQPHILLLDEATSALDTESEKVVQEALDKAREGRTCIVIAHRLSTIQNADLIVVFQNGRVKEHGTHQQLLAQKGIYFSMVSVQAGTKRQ

Ratio [1] | Structure (SMILES) | fractional inhibitory concentration index (FICI) [2] | fractional inhibitory concentration index (FICI) [3] | fractional inhibitory concentration index (FICI) [4] | fractional inhibitory concentration index (FICI) [5] | fractional inhibitory concentration index (FICI) [6] | fractional inhibitory concentration index (FICI) [7]
0.88 | C=C(CCCC(C)(C)O)[C@H]1CC[C@@]2(O)C3=CC(=O)[C@@H]4C[C@@H](O)[C@@H](O)C[C@]4(C)[C@H]3CC[C@]12C | 0.53 | 1.05 | 0.71 |  |  | 
1.93 | CC(C)CC[C@H]1OC(C)(C)O[C@]1(C)[C@H]1CC[C@@]2(O)C3=CC(=O)[C@@H]4C[C@@H](O)[C@@H](O)C[C@]4(C)[C@H]3[C@H](O)C[C@]12C |  |  |  | 0.13 | 0.25 | 0.52
47.95 | CC(=O)O[C@H]1C[C@]2(C)[C@H]3CC[C@]4(C)[C@@H]([C@@](C)(O)[C@@H](CCC(C)(C)O)OC(C)=O)CC[C@@]4(O)C3=CC(=O)[C@]2(O)C[C@H]1OC(C)=O | 0.26 | 0.35 | 0.3 |  |  | 
24.39 | CC1(CC[C@H]2OC(C)(C)O[C@]2(C)[C@H]2CC[C@@]3(O)C4=CC(=O)[C@@H]5C[C@H]6OC(C)(C)O[C@H]6C[C@]5(C)[C@H]4CC[C@]23C)COC(C)(C)O1 (some centres not stated) |  |  |  | 0.12 | 0.16 | 0.23
7.01 | CC(C)(O)CC[C@H]1OC(C)(C)O[C@]1(C)[C@H]1CC[C@@]2(O)C3=CC(=O)[C@@H]4C[C@@H](O)CC[C@]4(C)[C@H]3CC[C@]12C |  |  |  | 0.091 | 0.28 | 0.88
8.55 | CC(=O)O[C@H]1C[C@@]2(C)[C@@H](C[C@H]1OC(C)=O)C(=O)C=C1[C@@H]2CC[C@]2(C)[C@@H]([C@@](C)(O)[C@@H](CCC(C)(C)OC(C)=O)OC(C)=O)CC[C@@]12O |  |  |  | 0.13 | 0.29 | 0.73
25.07 | CC(=O)O[C@H]1CC[C@@]2(C)[C@@H](C1)C(=O)C=C1[C@@H]2CC[C@]2(C)[C@@H]([C@H](C)[C@@H](CCC(C)(C)OC(C)=O)OC(C)=O)CC[C@@]12O |  |  |  | 0.14 | 0.23 | 0.41
13.32 | CC(O)(CO)CC[C@H]1OC(C)(C)O[C@]1(C)[C@H]1CC[C@@]2(O)C3=CC(=O)[C@]4(O)C[C@@H](O)[C@@H](O)C[C@]4(C)[C@H]3CC[C@]12C (some centres not stated) | 0.062 | 0.42 | 0.16 |  |  | 
2.43 | CC(C)(O)CC[C@H]1OC(C)(C)O[C@]1(C)[C@H]1CC[C@@]2(O)C3=CC(=O)[C@@H]4C[C@@H](O)[C@H]5OC(C)(C)O[C@H]5[C@]4(C)[C@H]3CC[C@]12C |  |  |  | 0.28 | 0.42 | 0.66
46.49 | CC(C)CC[C@H]1OC(C)(C)O[C@]1(C)[C@H]1CC[C@@]2(O)C3=CC(=O)[C@@H]4C[C@H]5OC(C)(C)O[C@H]5C[C@]4(C)[C@H]3[C@H](O)C[C@]12C |  |  |  | 0.12 | 0.14 | 0.18

The next lines start with the compound.

Structure (SMILES) | Ratio [1] | fractional inhibitory concentration index (FICI) [2] | fractional inhibitory concentration index (FICI) [3] | fractional inhibitory concentration index (FICI) [4] | fractional inhibitory concentration index (FICI) [5] | fractional inhibitory concentration index (FICI) [6] | fractional inhibitory concentration index (FICI) [7]
C[C@]12C[C@H](O)[C@H](O)C[C@H]1C(=O)C=C1[C@@H]2CC[C@]2(C)C(=O)CC[C@@]12O [RUBROSTERONE] | 0.89 | 0.41 | 1.12 | 0.65 |  |  | 
CC[C@H](C[C@@H](O)[C@](C)(O)[C@H]1CC[C@@]2(O)C3=CC(=O)[C@@H]4C[C@@H](O)[C@@H](O)C[C@]4(C)[C@H]3CC[C@]12C)C(C)(C)O [MAKISTERONE C] | 0.66 | 0.2 | 0.98 | 0.42 |  |  | 
CC(C)(O)CC[C@H]1OC(C)(C)O[C@]1(C)[C@H]1CC[C@@]2(O)C3=CC(=O)[C@@H]4C[C@@H](O)[C@@H](O)[C@@H](O)[C@]4(C)[C@H]3CC[C@]12C | 1.14 | 0.23 | 1.16 | 0.51 |  |  | 
CC(C)(O)CC[C@@H](O)[C@](C)(O)[C@H]1CC[C@@]2(O)C3=CC(=O)[C@@H]4C[C@@H](O)CC[C@]4(C)[C@H]3CC[C@]12C | 0.55 | 2.26 | 1.05 | 1.48 |  |  | 
CC(C)(O)CCC[C@](C)(O)[C@H]1CC[C@@]2(O)C3=CC(=O)[C@@H]4C[C@@H](O)[C@@H](O)[C@@H](O)[C@]4(C)[C@H]3CC[C@]12C | 0.66 | 0.6 | 1.37 | 0.9 |  |  | 
C=C(C)CC[C@@H](O)[C@](C)(O)[C@H]1CC[C@@]2(O)C3=CC(=O)[C@@H]4C[C@@H](O)[C@@H](O)C[C@]4(C)C3=CC[C@]12C | 1.43 | 0.43 | 1.75 | 0.85 |  |  | 
CC[C@H](C[C@H]1OC(C)(C)O[C@]1(C)[C@H]1CC[C@@]2(O)C3=CC(=O)[C@@H]4C[C@H]5OC(C)(C)O[C@H]5C[C@]4(C)[C@H]3CC[C@]12C)C(C)(C)O | 26.53 |  |  |  | 0.068 | 0.11 | 0.19
CC(C)(O)CC[C@@H](O)[C@](C)(O)[C@H]1CC[C@@]2(O)C3=CC(=O)[C@H]4C[C@@H](O)C[C@@H](O)[C@]4(C)[C@H]3CC[C@]12C | 0.68 |  |  |  | 1.97 | 1.7 | 2.48
CC(=O)O[C@H]1C[C@@]2(C)[C@@H](C[C@H]1OC(C)=O)C(=O)C=C1[C@@H]2CC[C@]2(C)[C@@H]([C@@](C)(O)[C@@H](CCC(C)(C)O)OC(C)=O)CC[C@@]12O | 1.25 | 0.7 | 1.26 | 0.91 |  |  | 
CC(=O)O[C@H]1CC[C@@]2(C)[C@@H](C1)C(=O)C=C1[C@@H]2CC[C@]2(C)[C@@H]([C@H](C)[C@@H](CCC(C)(C)O)OC(C)=O)CC[C@@]12O | 0.97 |  |  |  | 0.5 | 0.86 | 1.5
CC(C)CC[C@@H](O)[C@](C)(O)[C@H]1CC[C@@]2(O)C3=CC(=O)[C@@H]4C[C@@H](O)[C@@H](O)C[C@]4(C)C3=CC[C@]12C [DACRYHAINANSTERONE] | 1.07 | 5.46 | 1.76 | 2.92 |  |  | 
CC(C)(O)CC[C@@H](O)[C@](C)(O)[C@H]1CC[C@@]2(O)C3=CC(=O)[C@]4(O)C[C@@H](O)[C@@H](O)C[C@]4(C)[C@H]3CC[C@]12C [POLYPODINE B] | 0.77 |  |  |  | 0.58 | 0.8 | 1.11
CC(C)(O)CC[C@H]1OC(C)(C)O[C@]1(C)[C@H]1CC[C@@]2(O)C3=CC(=O)[C@@H]4C[C@@H](O)[C@@H](O)C[C@]4(C)[C@H]3CC[C@]12C | 1.53 |  |  |  | 0.35 | 0.54 | 0.84
